Measurements reported in patent US20250177352A1, “COMBINATION TREATMENT FOR CANCER” (LAEKNA LIMITED, priority 2022, published 2025).

What was measured:
MBT-2 cells = experiment: Proliferation assay of mouse cancer cell lines (CellTiter-Lumi, ATP); assay type: cell-based; settings: afuresertib 0.0001-10 μM, 3 days, FIG. 1
Protocol: The cell lines were obtained from Cobioer Biosciences Co. Ltd., Nanjing, China. 1,000 to 2,000 cells were seeded into 96-well plate, and induced with various concentrations of afuresertib (0.0001-10 μM) for 3 days at 37° C. with 5% CO2. The number of viable cells in culture was determined based on quantitation of the amount of ATP following the manufacturer's instructions (CellTiter-Lumi Kit, Beyotime).

Akt (protein kinase B) = settings: reversible, ATP-competitive; stated as known; cited from earlier work
mTNBC = settings: historical control for mTNBC patients with PD-L1 negative status; cited from earlier work
solid tumors = settings: literature values of approved antibodies; cited from earlier work

| Molecule | ORR, Phase I studies in solid tumors (solid tumors) | further results |
| --- | --- | --- |
| Cn1ncc(Cl)c1-c1cc(C(=O)N[C@H](CN)Cc2cccc(F)c2)sc1Cl [Afuresertib, N-{(1S)-2-amino-1-[(3-fluorophenyl)methyl]ethyl}-5-chloro-4-(4-chloro-1-methyl-1H-pyrazol-5-yl)-2-thiophenecarboxamide] | – | response of cell proliferation (cell viability) (MBT-2 cells): favorable response profile; pan-AKT kinase inhibitor potency (Akt (protein kinase B)): low-nanomolar |
| CC(=O)O[C@H]1C(=O)[C@@]2(C)[C@H]([C@H](OC(=O)c3ccccc3)[C@]3(O)C[C@H](OC(=O)[C@H](O)[C@@H](NC(=O)c4ccccc4)c4ccccc4)C(C)=C1C3(C)C)[C@]1(OC(C)=O)CO[C@@H]1C[C@@H]2O [paclitaxel, [(1S,2S,3R,4S,7R,9S,10S,12R,15S)-4,12-diacetyloxy-15-[(2R,3S)-3-benzamido-2-hydroxy-3-phenylpropanoyl]oxy-1,9-dihydroxy-10,14,17,17-tetramethyl-11-oxo-6-oxatetracyclo[11.3.1.0^3,10.0^4-7]heptadec-13-en-2-yl]benzoate] | – | ORR, paclitaxel monotherapy, LOTUS Study (mTNBC): 32% |
| Atezolizumab: anti-PD-L1 antibody (Genentech/Roche) | 10% | – |
| Avelumab: anti-PD-L1 antibody (Merck Serono and Pfizer) | 9% | – |
| Pembrolizumab: listed among other approved anti-PD-L1 antibodies from Phase I studies | 5.3% | – |
